Values of other authors in patent CN102028697A, “含非离子表面活性剂的拉坦前列素滴眼液及制备方法” (SHANGHAI SINE PHARMACEUTICAL CO Ltd, priority 2009, dated 2011).

How the values were obtained:
[1] = in water

SMILES: CC(C)OC(=O)CCC/C=C\C[C@@H]1[C@@H](CC[C@@H](O)CCc2ccccc2)[C@H](O)C[C@@H]1O [拉坦前列素]
- solubility [1]: 几乎不溶
- permissible time at 40℃: ≤ 8 days
